Reference: patent publication US20240190880A1 (THE REGENTS OF THE UNIVERSITY OF MICHIGAN, priority 2021, published 2024)
Like-named read-outs stand apart in the source and are kept apart here.

Molecular target: T1, ER (Homo sapiens, UniProt P03372)
T1 construct: host or cells: T47D and MCF7 human breast cancer cells
T1 sequence (P03372 1-595): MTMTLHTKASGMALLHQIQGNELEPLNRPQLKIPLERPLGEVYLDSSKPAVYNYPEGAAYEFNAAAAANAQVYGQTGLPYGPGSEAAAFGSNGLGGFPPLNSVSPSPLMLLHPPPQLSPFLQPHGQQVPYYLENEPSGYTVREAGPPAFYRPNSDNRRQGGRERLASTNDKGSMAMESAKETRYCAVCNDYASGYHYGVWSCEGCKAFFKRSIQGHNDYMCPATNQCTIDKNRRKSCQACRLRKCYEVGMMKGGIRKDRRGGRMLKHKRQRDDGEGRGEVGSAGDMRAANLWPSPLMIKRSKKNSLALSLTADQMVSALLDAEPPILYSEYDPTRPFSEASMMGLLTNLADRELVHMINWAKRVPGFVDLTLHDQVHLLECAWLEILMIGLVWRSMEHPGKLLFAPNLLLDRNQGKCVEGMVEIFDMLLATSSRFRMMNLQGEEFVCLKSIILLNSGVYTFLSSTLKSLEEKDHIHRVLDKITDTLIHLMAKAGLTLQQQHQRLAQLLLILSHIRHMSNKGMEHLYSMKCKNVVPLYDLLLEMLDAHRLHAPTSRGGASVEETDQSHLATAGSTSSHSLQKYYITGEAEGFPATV
Test: ER degradation activity, in-cell western blot analysis in T47D cells
Assay type: cell-based
Summary of the method: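 Human T47D cells (DMEM, 10% FBS) are dosed for 16 h with 0.5% DMSO final and probed with 680- and 800-dye secondary antibodies. Relative ER is calculated against vehicle and untreated wells.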

[1] = 16 hours, Table A does not say which cell line (T47D or MCF7), read-out: Potency (DC50)
[2] = compounds 16 hours, Table A does not say whether T47D or MCF7, read-out: Potency (DC50)

Q: Which DC50 [1] does the source give for `C[C@@H]1Cc2c([nH]c3ccccc23)[C@@H](c2c(F)cc(N3CCC4(CC3)CC(C(=O)N3CCC(N5Cc6cc7c(cc6C5)C(=O)N(C5CCC(=O)NC5=O)C7=O)CC3)C4)cc2F)N1CC(F)F` (stereo partly drawn) [E 100, 6-(1-(7-(4-((1R,3R)-2-(2,2-difluoroethyl)-3-methyl-2,3,4,9-tetrahydro-1H-pyrido[3,4-b]indol-1-yl)-3,5-difluorophenyl)-7-azaspiro[3.5]nonane-2-carbonyl)piperidin-4-yl)-2-(2,6-dioxopiperidin-3-yl)-6,7-dihydropyrrolo[3,4-f]isoindole-1,3(2H,5H)-dione] here?
A: The DC50 was < 10 nM.

Q: Which DC50 [1] does the source give for `CN(c1ccc([C@H]2c3ccc(O)cc3CC[C@H]2c2ccccc2)cc1)C1CN([C@H]2CC[C@H](C(=O)N3Cc4cc5c(cc4C3)C(=O)N(C3CCC(=O)NC3=O)C5=O)CC2)C1` (stereo partly drawn) [E 394, 2-(2,6-dioxopiperidin-3-yl)-6-((1S,4r)-4-(3-((4-((1S,2R)-6-hydroxy-2-phenyl-1,2,3,4-tetrahydronaphthalen-1-yl)phenyl)(methyl)amino)azetidin-1-yl)cyclohexane-1-carbonyl)-6,7-dihydropyrrolo[3,4-f]isoindole-1,3(2H,5H)-dione] here?
A: Its DC50 is > 100 nM.

Q: Which DC50 [1] does the source give for `O=C1CCC(N2C(=O)c3cc4c(cc3C2=O)CN(CC(=O)N2CCC3(CCN(c5ccc([C@@H]6c7ccc(O)cc7CC[C@@H]6c6ccccc6)cc5)CC3)C2)C4)C(=O)N1` (mixture of isomers) [E 7, rac-2-(2,6-dioxopiperidin-3-yl)-6-(2-(8-(4-((1R,2S)-6-hydroxy-2-phenyl-1,2,3,4-tetrahydronaphthalen-1-yl)phenyl)-2,8-diazaspiro[4.5]decan-2-yl)-2-oxoethyl)-6,7-dihydropyrrolo[3,4-f]isoindole-1,3(2H,5H)-dione] here?
A: The DC50 was 10 to 100 nM.

Q: With `C[C@@H]1Cc2c([nH]c3ccccc23)[C@@H](c2c(F)cc(N3CCC4(CCN(C(=O)CN5Cc6cc7c(cc6C5)C(=O)N(C5CCC(=O)NC5=O)C7=O)CC4)CC3)cc2F)N1CC(F)(F)F` (stereo partly drawn) [E 226, 6-(2-(9-(3,5-difluoro-4-((1R,3R)-3-methyl-2-(2,2,2-trifluoroethyl)-2,3,4,9-tetrahydro-1H-pyrido[3,4-b]indol-1-yl)phenyl)-3,9-diazaspiro[5.5]undecan-3-yl)-2-oxoethyl)-2-(2,6-dioxopiperidin-3-yl)-6,7-dihydropyrrolo[3,4-f]isoindole-1,3(2H,5H)-dione] as the molecule, how does the DC50 [1] read?
A: Its DC50 is 10 to 100 nM.

Q: How did the DC50 [1] turn out when `C[C@@H]1Cc2c([nH]c3ccccc23)[C@@H](c2c(F)cc(N3CCC(CN4CCC5(CCC(N6Cc7cc8c(cc7C6)C(=O)N(C6CCC(=O)NC6=O)C8=O)C5)CC4)CC3)cc2F)N1CC(F)F` (stereo partly drawn) [E 133, 6-(8-((1-(4-((1R,3R)-2-(2,2-difluoroethyl)-3-methyl-2,3,4,9-tetrahydro-1H-pyrido[3,4-b]indol-1-yl)-3,5-difluorophenyl)piperidin-4-yl)methyl)-8-azaspiro[4.5]decan-2-yl)-2-(2,6-dioxopiperidin-3-yl)-6,7-dihydropyrrolo[3,4-f]isoindole-1,3(2H,5H)-dione] was run?
A: Its DC50 is 10 to 100 nM.

Q: `C[C@@H]1Cc2cc(O)ccc2[C@@H](c2c(F)cc(OCC3CCC4(CC3)CN(C(=O)CN3Cc5cc6c(cc5C3)C(=O)N(C3CCC(=O)NC3=O)C6=O)C4)cc2F)N1CC(F)F` (stereo partly drawn) [E 453, 6-(2-(7-((4-((1S,3R)-2-(2,2-difluoroethyl)-6-hydroxy-3-methyl-1,2,3,4-tetrahydroisoquinolin-1-yl)-3,5-difluorophenoxy)methyl)-2-azaspiro[3.5]nonan-2-yl)-2-oxoethyl)-2-(2,6-dioxopiperidin-3-yl)-6,7-dihydropyrrolo[3,4-f]isoindole-1,3(2H,5H)-dione] was tested. Which DC50 [2] did it give?
A: The DC50 was < 10 nM.

Q: For `O=C1CCC(N2C(=O)c3cc4c(cc3C2=O)CN(C(=O)CN2CCC3(CC2)CCN(c2ccc([C@@H]5c6ccc(O)cc6CC[C@@H]5c5ccccc5)c(F)c2)C3)C4)C(=O)N1` (mixture of isomers) [E 153, Rac-2-(2,6-dioxopiperidin-3-yl)-6-(2-(2-(3-fluoro-4-((1S,2S)-6-hydroxy-2-phenyl-1,2,3,4-tetrahydronaphthalen-1-yl)phenyl)-2,8-diazaspiro[4.5]decan-8-yl)acetyl)-6,7-dihydropyrrolo[3,4-f]isoindole-1,3(2H,5H)-dione], which DC50 [1] is on record?
A: Its DC50 is > 100 nM.

Q: With `O=C1CCC(N2C(=O)c3cc4c(cc3C2=O)CN(CCN2CCC3(CC2)CN(c2ccc([C@@H]5c6ccc(O)cc6CC[C@@H]5c5ccccc5)cc2)C3)C4)C(=O)N1` (mixture of isomers) [E 266, rac-2-(2,6-dioxopiperidin-3-yl)-6-(2-(2-(4-((1R,2S)-6-hydroxy-2-phenyl-1,2,3,4-tetrahydronaphthalen-1-yl)phenyl)-2,7-diazaspiro[3.5]nonan-7-yl)ethyl)-6,7-dihydropyrrolo[3,4-f]isoindole-1,3(2H,5H)-dione] as the molecule, how does the DC50 [1] read?
A: The DC50 was 10 to 100 nM.

Q: For `O=C1CCC(N2C(=O)c3cc4c(cc3C2=O)CN(CC(=O)N2CC3(C2)CN(c2ccc([C@@H]5c6ccc(O)cc6CC[C@@H]5c5ccccc5)cc2)C3)C4)C(=O)N1` (mixture of isomers) [E 8, 2-(2,6-dioxopiperidin-3-yl)-6-(2-(6-(4-((1R,2S)-6-hydroxy-2-phenyl-1,2,3,4-tetrahydronaphthalen-1-yl)phenyl)-2,6-diazaspiro[3.3]heptan-2-yl)-2-oxoethyl)-6,7-dihydropyrrolo[3,4-f]isoindole-1,3(2H,5H)-dione], which DC50 [1] is on record?
A: The DC50 was 10 to 100 nM.

Q: `C[C@@H]1Cc2cc(O)ccc2[C@@H](c2c(F)cc(C(=O)N3CCC4(CC3)CC(CN3Cc5cc6c(cc5C3)C(=O)N(C3CCC(=O)NC3=O)C6=O)C4)cc2F)N1CC(F)F` (stereo partly drawn) [E 465, 6-((7-(4-((1S,3R)-2-(2,2-difluoroethyl)-6-hydroxy-3-methyl-1,2,3,4-tetrahydroisoquinolin-1-yl)-3,5-difluorobenzoyl)-7-azaspiro[3.5]nonan-2-yl)methyl)-2-(2,6-dioxopiperidin-3-yl)-6,7-dihydropyrrolo[3,4-f]isoindole-1,3(2H,5H)-dione] was tested. Which DC50 [2] did it give?
A: Its DC50 is > 100 nM.

Q: For `C[C@@H]1Cc2cc(O)ccc2[C@@H](c2c(F)cc(N3CC4(CN(C(=O)CN5Cc6cc7c(cc6C5)C(=O)N(C5CCC(=O)NC5=O)C7=O)C4)C3)cc2F)N1CC(F)F` (stereo partly drawn) [E 42, 6-(2-(6-(4-((1S,3R)-2-(2,2-difluoroethyl)-6-hydroxy-3-methyl-1,2,3,4-tetrahydroisoquinolin-1-yl)-3,5-difluorophenyl)-2,6-diazaspiro[3.3]heptan-2-yl)-2-oxoethyl)-2-(2,6-dioxopiperidin-3-yl)-6,7-dihydropyrrolo[3,4-f]isoindole-1,3(2H,5H)-dione], which DC50 [1] is on record?
A: The DC50 was < 10 nM.

Q: How did the DC50 [1] turn out when `C[C@@H]1Cc2cc(O)ccc2[C@@H](c2c(F)cc(N3CCC4(CN(C(=O)CN5Cc6cc7c(cc6C5)C(=O)N(C5CCC(=O)NC5=O)C7)C4)C3)cc2F)N1CC(F)F` (stereo partly drawn) [E 37, 3-(6-(2-(6-(4-((1S,3R)-2-(2,2-difluoroethyl)-6-hydroxy-3-methyl-1,2,3,4-tetrahydroisoquinolin-1-yl)-3,5-difluorophenyl)-2,6-diazaspiro[3.4]octan-2-yl)-2-oxoethyl)-1-oxo-3,5,6,7-tetrahydropyrrolo[3,4-f]isoindol-2(1H)-yl)piperidine-2,6-dione] was run?
A: Its DC50 is < 10 nM.

Q: With `C[C@@H]1Cc2c([nH]c3ccccc23)[C@@H](c2c(F)cc(C3CCN(C(=O)[C@H]4CC[C@H](N5Cc6cc7c(cc6C5)C(=O)N(C5CCC(=O)NC5=O)C7=O)CC4)CC3)cc2F)N1CC(F)F` (stereo partly drawn) [E 393, 6-((1R,4r)-4-(4-(4-((1R,3R)-2-(2,2-difluoroethyl)-3-methyl-2,3,4,9-tetrahydro-1H-pyrido[3,4-b]indol-1-yl)-3,5-difluorophenyl)piperidine-1-carbonyl)cyclohexyl)-2-(2,6-dioxopiperidin-3-yl)-6,7-dihydropyrrolo[3,4-f]isoindole-1,3(2H,5H)-dione] as the molecule, how does the DC50 [1] read?
A: The DC50 was < 10 nM.

Q: With `C[C@@H]1Cc2c([nH]c3ccccc23)[C@@H](c2c(F)cc(N3CCCC(CN4CCC(C(=O)N5Cc6cc7c(cc6C5)C(=O)N(C5CCC(=O)NC5=O)C7=O)CC4)C3)cc2F)N1CC(F)F` (stereo partly drawn) [E 58, 6-(1-((1-(4-((1R,3R)-2-(2,2-difluoroethyl)-3-methyl-2,3,4,9-tetrahydro-1H-pyrido[3,4-b]indol-1-yl)-3,5-difluorophenyl)piperidin-3-yl)methyl)piperidine-4-carbonyl)-2-(2,6-dioxopiperidin-3-yl)-6,7-dihydropyrrolo[3,4-f]isoindole-1,3(2H,5H)-dione] as the molecule, how does the DC50 [1] read?
A: Its DC50 is 10 to 100 nM.

Q: `O=C1CCC(N2C(=O)c3cc4c(cc3C2=O)CN(CC(=O)N2CCC3(CC2)CN(c2ccc([C@@H]5c6ccc(O)cc6CC[C@@H]5c5ccc(F)cc5Cl)cc2)C3)C4)C(=O)N1` (mixture of isomers) [E 11, rac-6-(2-(2-(4-((1R,2S)-2-(2-chloro-4-fluorophenyl)-6-hydroxy-1,2,3,4-tetrahydronaphthalen-1-yl)phenyl)-2,7-diazaspiro[3.5]nonan-7-yl)-2-oxoethyl)-2-(2,6-dioxopiperidin-3-yl)-6,7-dihydropyrrolo[3,4-f]isoindole-1,3(2H,5H)-dione] was tested. Which DC50 [1] did it give?
A: Its DC50 is 10 to 100 nM.
